Assay results as given in US9174964B2, “AMPK-activating piperidinyloxy-substituted 2,3-dihydro-1H-indene-1-amine compounds and pharmaceutical compositions including the same” (Rigel Pharmaceuticals, Inc., priority 2007, dated 2015).
Counter-ions that a name gives are not always drawn.

biological target: AMPK; test: AMPK activation, enzyme-linked immunosorbent assay; format: biochemical; details: Table 4, AMPK activation, ELISA

Question: For `O=C(N[C@@H]1CCNC1)c1cc2cc(OC3CCN(c4ccc(C(F)(F)F)cc4)CC3)ccc2o1` [Compound 121, (R)-N-(pyrrolidin-3-yl)-5-(1-(4-(trifluoromethyl)phenyl)piperidin-4-yloxy)benzofuran-2-carboxamide], which EC50 is on record?
Answer: The EC50 was greater than 50000 nM.

Question: For `O=C(N[C@@H]1CCN(Cc2ccncc2)C1)c1cc2cc(OC3CCN(c4ccc(C(F)(F)F)cc4)CC3)ccc2o1` [Compound 122, (R)-N-(1-(pyridin-4-ylmethyl)pyrrolidin-3-yl)-5-(1-(4-(trifluoromethyl)phenyl)piperidin-4-yloxy)benzofuran-2-carboxamide], which EC50 is on record?
Answer: Its EC50 is 100 to 500 nM.

Question: How did the EC50 turn out when `O=C(N[C@@H]1CCN(Cc2cccnc2)C1)c1cc2cc(OC3CCN(c4ccc(C(F)(F)F)cc4)CC3)ccc2o1` [Compound 123, (R)-N-(1-(pyridin-3-ylmethyl)pyrrolidin-3-yl)-5-(1-(4-(trifluoromethyl)phenyl)piperidin-4-yloxy)benzofuran-2-carboxamide] was run?
Answer: The EC50 was 100 to 500 nM.

Question: How did the EC50 turn out when `O=C(N[C@@H]1CCN(Cc2ccccn2)C1)c1cc2cc(OC3CCN(c4ccc(C(F)(F)F)cc4)CC3)ccc2o1` [Compound 124, (R)-N-(1-(pyridin-2-ylmethyl)pyrrolidin-3-yl)-5-(1-(4-(trifluoromethyl)phenyl)piperidin-4-yloxy)benzofuran-2-carboxamide] was run?
Answer: Its EC50 is 1000 to 10000 nM.

Question: For `O=C(N[C@@H]1CCN(C(=O)c2ccncc2)C1)c1cc2cc(OC3CCN(c4ccc(C(F)(F)F)cc4)CC3)ccc2o1` [Compound 125, (R)-N-(1-isonicotinoylpyrrolidin-3-yl)-5-(1-(4-(trifluoromethyl)phenyl)piperidin-4-yloxy)benzofuran-2-carboxamide], which EC50 is on record?
Answer: Its EC50 is 1000 to 10000 nM.

Question: `O=C(N[C@@H]1CCN(S(=O)(=O)c2cccnc2)C1)c1cc2cc(OC3CCN(c4ccc(C(F)(F)F)cc4)CC3)ccc2o1` [Compound 126, (R)-N-(1-(pyridin-3-ylsulfonyl)pyrrolidin-3-yl)-5-(1-(4-(trifluoromethyl)phenyl)piperidin-4-yloxy)benzofuran-2-carboxamide] was tested. Which EC50 did it give?
Answer: The EC50 was 1000 to 10000 nM.

Question: With `CC(C)(C)OC(=O)N1CC[C@H](NC(=O)c2cc3cc(OC4CCN(Cc5ccc(Cl)cc5)CC4)ccc3o2)C1` [Compound 127, (S)-tert-butyl 3-(5-(1-(4-chlorobenzyl)piperidin-4-yloxy)benzofuran-2-carboxamido)pyrrolidine-1-carboxylate] as the molecule, how does the EC50 read?
Answer: The EC50 was 1000 to 10000 nM.

Question: How did the EC50 turn out when `O=C(N[C@H]1CCNC1)c1cc2cc(OC3CCN(Cc4ccc(Cl)cc4)CC3)ccc2o1` [Compound 128, (S)-5-(1-(4-chlorobenzyl)piperidin-4-yloxy)-N-(pyrrolidin-3-yl)benzofuran-2-carboxamide] was run?
Answer: The EC50 was greater than 50000 nM.

Question: How did the EC50 turn out when `O=C(N[C@H]1CCN(Cc2ccncc2)C1)c1cc2cc(OC3CCN(Cc4ccc(Cl)cc4)CC3)ccc2o1` [Compound 129, (S)-5-(1-(4-chlorobenzyl)piperidin-4-yloxy)-N-(1-(pyridin-4-ylmethyl)pyrrolidin-3-yl)benzofuran-2-carboxamide] was run?
Answer: Its EC50 is 1000 to 10000 nM.

Question: Which EC50 does the source give for `O=C(N[C@H]1CCN(Cc2cccnc2)C1)c1cc2cc(OC3CCN(Cc4ccc(Cl)cc4)CC3)ccc2o1` [Compound 130, (S)-5-(1-(4-chlorobenzyl)piperidin-4-yloxy)-N-(1-(pyridin-3-ylmethyl)pyrrolidin-3-yl)benzofuran-2-carboxamide] here?
Answer: The EC50 was 1000 to 10000 nM.

Question: How did the EC50 turn out when `NC(=O)c1ccc(CN2CCC(Oc3ccc4oc(C(=O)NC5CCN(Cc6ccncc6)CC5)cc4c3)CC2)cc1` [Compound 131, 5-(1-(4-carbamoylbenzyl)piperidin-4-yloxy)-N-(1-(pyridin-4-ylmethyl)piperidin-4-yl)benzofuran-2-carboxamide] was run?
Answer: The EC50 was 1000 to 10000 nM.

same assay, conditions: Table 5, AMPK activation, ELISA

Question: `O=C(NC1CCN(Cc2ccncc2)CC1)c1cc2cc(OC3CCN(c4ccc(OC(F)(F)F)cc4)CC3)ccc2s1` [Compound 137, N-(1-(pyridin-4-ylmethyl)piperidin-4-yl)-5-(1-(4-(trifluoromethoxy)phenyl)piperidin-4-yloxy)benzo[b]thiophene-2-carboxamide] was tested. Which EC50 did it give?
Answer: The EC50 was less than 100 nM.

Question: With `O=C(NC1CCN(Cc2ccncc2)CC1)c1cc2cc(OC3CCN(c4ccc(C(F)(F)F)cc4)CC3)ccc2s1` [Compound 138, N-(1-(pyridin-4-ylmethyl)piperidin-4-yl)-5-(1-(4-(trifluoromethyl)phenyl)piperidin-4-yloxy)benzo[b]thiophene-2-carboxamide] as the molecule, how does the EC50 read?
Answer: The EC50 was less than 100 nM.

Question: `O=C(NC1CCN(Cc2ccncc2)CC1)c1cc2cc(OC3CCN(Cc4ccc(Cl)cc4)CC3)ccc2s1` [Compound 139, formate salt] was tested. Which EC50 did it give?
Answer: The EC50 was less than 100 nM.

Question: How did the EC50 turn out when `CC(C)(C)OC(=O)N1CCC(NC(=O)c2cc3ccc(OC4CCN(c5ccc(C(F)(F)F)cc5)CC4)cc3s2)CC1` [Compound 140, tert-butyl 4-(6-(1-(4-(trifluoromethyl)phenyl)piperidin-4-yloxy)benzo[b]thiophene-2-carboxamido)piperidine-1-carboxylate] was run?
Answer: The EC50 was 500 to 1000 nM.

Question: Which EC50 does the source give for `O=C(NC1CCNCC1)c1cc2ccc(OC3CCN(c4ccc(C(F)(F)F)cc4)CC3)cc2s1` [Compound 141, N-(piperidin-4-yl)-6-(1-(4-(trifluoromethyl)phenyl)piperidin-4-yloxy)benzo[b]thiophene-2-carboxamide] here?
Answer: The EC50 was 100 to 500 nM.

Question: For `N#Cc1ccc(CN2CCC(NC(=O)c3cc4ccc(OC5CCN(c6ccc(C(F)(F)F)cc6)CC5)cc4s3)CC2)cc1` [Compound 144, N-(1-(4-cyanobenzyl)piperidin-4-yl)-6-(1-(4-(trifluoromethyl)phenyl)piperidin-4-yloxy)benzo[b]thiophene-2-carboxamide], which EC50 is on record?
Answer: Its EC50 is less than 100 nM.

Question: Which EC50 does the source give for `N#Cc1cccc(CN2CCC(NC(=O)c3cc4ccc(OC5CCN(c6ccc(C(F)(F)F)cc6)CC5)cc4s3)CC2)c1` [Compound 145, N-(1-(3-cyanobenzyl)piperidin-4-yl)-6-(1-(4-(trifluoromethyl)phenyl)piperidin-4-yloxy)benzo[b]thiophene-2-carboxamide] here?
Answer: Its EC50 is 100 to 500 nM.

Question: With `N#Cc1ccccc1CN1CCC(NC(=O)c2cc3ccc(OC4CCN(c5ccc(C(F)(F)F)cc5)CC4)cc3s2)CC1` [Compound 146, N-(1-(2-cyanobenzyl)piperidin-4-yl)-6-(1-(4-(trifluoromethyl)phenyl)piperidin-4-yloxy)benzo[b]thiophene-2-carboxamide] as the molecule, how does the EC50 read?
Answer: Its EC50 is 100 to 500 nM.

Question: For `CC(C)(C)OC(=O)N1CCC(NC(=O)c2sc3cc(OC4CCN(c5ccc(C(F)(F)F)cc5)CC4)ccc3c2Cl)CC1` [Compound 147, tert-butyl 4-(3-chloro-6-(1-(4-(trifluoromethyl)phenyl)piperidin-4-yloxy)benzo[b]thiophene-2-carboxamido)piperidine-1-carboxylate], which EC50 is on record?
Answer: Its EC50 is 1000 to 50000 nM.

Question: For `O=C(NC1CCNCC1)c1sc2cc(OC3CCN(c4ccc(C(F)(F)F)cc4)CC3)ccc2c1Cl` [Compound 148, 3-chloro-N-(piperidin-4-yl)-6-(1-(4-(trifluoromethyl)phenyl)piperidin-4-yloxy)benzo[b]thiophene-2-carboxamide], which EC50 is on record?
Answer: Its EC50 is greater than 50000 nM.

Question: Which EC50 does the source give for `CC(C)(C)OC(=O)N1CCC(NC(=O)c2cc3cc(OC4CCN(c5ccc(C(F)(F)F)cc5)CC4)ccc3s2)CC1` [Compound 149, tert-butyl 4-(5-(1-(4-(trifluoromethyl)phenyl)piperidin-4-yloxy)benzo[b]thiophene-2-carboxamido)piperidine-1-carboxylate] here?
Answer: The EC50 was less than 100 nM.

Question: How did the EC50 turn out when `O=C(NC1CCNCC1)c1cc2cc(OC3CCN(c4ccc(C(F)(F)F)cc4)CC3)ccc2s1` [Compound 150, N-(piperidin-4-yl)-5-(1-(4-(trifluoromethyl)phenyl)piperidin-4-yloxy)benzo[b]thiophene-2-carboxamide] was run?
Answer: Its EC50 is 1000 to 50000 nM.

Question: How did the EC50 turn out when `O=C(NC1CCN(Cc2ccncc2)CC1)c1sc2cc(OC3CCN(c4ccc(C(F)(F)F)cc4)CC3)ccc2c1Cl` [Compound 151, 3-chloro-N-(1-(pyridin-4-ylmethyl)piperidin-4-yl)-6-(1-(4-(trifluoromethyl)phenyl)piperidin-4-yloxy)benzo[b]thiophene-2-carboxamide] was run?
Answer: The EC50 was less than 100 nM.

Question: Which EC50 does the source give for `O=C(NC1CCN(Cc2cccnc2)CC1)c1sc2cc(OC3CCN(c4ccc(C(F)(F)F)cc4)CC3)ccc2c1Cl` [Compound 152, 3-chloro-N-(1-(pyridin-3-ylmethyl)piperidin-4-yl)-6-(1-(4-(trifluoromethyl)phenyl)piperidin-4-yloxy)benzo[b]thiophene-2-carboxamide] here?
Answer: The EC50 was less than 100 nM.

Question: `O=C(NC1CCN(Cc2ccccn2)CC1)c1sc2cc(OC3CCN(c4ccc(C(F)(F)F)cc4)CC3)ccc2c1Cl` [Compound 153, 3-chloro-N-(1-(pyridin-2-ylmethyl)piperidin-4-yl)-6-(1-(4-(trifluoromethyl)phenyl)piperidin-4-yloxy)benzo[b]thiophene-2-carboxamide] was tested. Which EC50 did it give?
Answer: Its EC50 is 100 to 500 nM.

Question: How did the EC50 turn out when `N#Cc1ccc(CN2CCC(NC(=O)c3sc4cc(OC5CCN(c6ccc(C(F)(F)F)cc6)CC5)ccc4c3Cl)CC2)cc1` [Compound 154, 3-chloro-N-(1-(4-cyanobenzyl)piperidin-4-yl)-6-(1-(4-(trifluoromethyl)phenyl)piperidin-4-yloxy)benzo[b]thiophene-2-carboxamide] was run?
Answer: The EC50 was less than 100 nM.

Question: For `O=C(NC1CCN(C(=O)c2ccncc2)CC1)c1sc2cc(OC3CCN(c4ccc(C(F)(F)F)cc4)CC3)ccc2c1Cl` [Compound 155, 3-chloro-N-(1-isonicotinoylpiperidin-4-yl)-6-(1-(4-(trifluoromethyl)phenyl)piperidin-4-yloxy)benzo[b]thiophene-2-carboxamide], which EC50 is on record?
Answer: Its EC50 is less than 100 nM.

same assay, conditions: Table 6, AMPK activation, ELISA

Question: For `FC(F)(F)c1ccc(N2CCC(Oc3ccc4c(c3)CCC4NC3CCNCC3)CC2)cc1` (stereo not shown) [Compound 157, N-(5-(1-(4-(trifluoromethyl)phenyl)piperidin-4-yloxy)-2,3-dihydro-1H-inden-1-yl)piperidin-4-amine], which EC50 is on record?
Answer: The EC50 was greater than 100000 nM.

Question: Which EC50 does the source give for `FC(F)(F)c1ccc(N2CCC(Oc3ccc4c(c3)CCC4NC3CCN(Cc4ccncc4)CC3)CC2)cc1` (stereo not shown) [Compound 158, 1-(pyridin-4-ylmethyl)-N-(5-(1-(4-(trifluoromethyl)phenyl)piperidin-4-yloxy)-2,3-dihydro-1H-inden-1-yl)piperidin-4-amine] here?
Answer: The EC50 was 500 to 1000 nM.

Question: For `Fc1ccc(CN2CCC(NC3CCc4cc(OC5CCN(c6ccc(C(F)(F)F)cc6)CC5)ccc43)CC2)cc1` (stereo not shown) [Compound 159, 1-(4-fluorobenzyl)-N-(5-(1-(4-(trifluoromethyl)phenyl)piperidin-4-yloxy)-2,3-dihydro-1H-inden-1-yl)piperidin-4-amine], which EC50 is on record?
Answer: Its EC50 is 500 to 1000 nM.
